# Read-outs that look alike come from different tables or passages of the source.
# What was measured:
# [1] = dog, in vivo, po, 25 mg/kg
# Description: (§1) For each of ulipristal acetate samples obtained in Examples and Comparative Example, the absorption test was performed as follows. The ulipristal acetate was filled into a gelatin capsule shell (manufacturer: Qualicaps Co., Ltd., size: No. 00, lot: C0079A) to produce a capsule. The capsule was orally administered to 6 female dogs at a dose of 25 mg/kg (in terms of ulipristal acetate). The blood was collected 0.5, 1, 2, 4, 6, 24, and 48 hours after the oral administration. Then the sample was centrifuged to give a plasma. The concentration of the ulipristal acetate in the plasma was measured by a LC-MS/MS (liquid chromatography-tandem mass spectrometry) method, and the elimination half-life (T112), the time to the maximum plasma concentration (Tmax), the maximum plasma concentration (Cmax), the area under the plasma concentration-time curve (AUC), and the mean residence time (MRT) were calculated. The capsule was administered to each female dog twice at dosing intervals (washout period) of one week by crossover method.
# [2] = Solubility in ethanol/water (10/90) mixed solvent at 37° C.; details: ethanol/water (volume ratio)=10/90, 37° C., stirred 5 minutes, HPLC
# Description: [Solubility] For each of ulipristal acetate samples obtained in Examples and Comparative Example, the solubility was determined as follows. The ulipristal acetate (40 mg) was added to 40 mL of a mixed solvent containing ethanol and water [ethanol/water (volume ratio)=10/90] having a temperature of 37° C. to prepare a test sample. The test sample was stirred by a magnetic stirrer for 5 minutes. Then a portion of the suspension was separated. The solid of the separated portion was filtered out, and the ulipristal acetate content of the residue was quantitatively determined using a high-performance liquid chromatography (column: ODS, column temperature: 40° C., eluate: 0.1% trifluoroacetic acid aqueous solution/acetonitrile mixture (volume ratio 3:2), rate of flow: 1.0 mL/minute, detection: UV 302 nm), and the solubility was calculated.
# [3] = Absorption test in dog; details: female dogs, oral capsule, 25 mg/kg
# Description: as §1
SMILES,AUC0-inf [1],AUC0-t [1],Cmax [1],MRTinf [1],MRTlast [1],T1/2 [1],Tmax [1],Solubility [2],"AUC0-inf ([3]; plasma, LC-MS/MS)","AUC0-t ([3]; plasma, LC-MS/MS)","Cmax ([3]; plasma, LC-MS/MS)","MRTinf ([3]; plasma, LC-MS/MS)","MRTlast ([3]; plasma, LC-MS/MS)","T1/2 ([3]; plasma, LC-MS/MS)","Tmax ([3]; plasma, LC-MS/MS)",Pharmacokinetics compared with Comparative Example (in words) ([3]; summary of Table 5)
"CC(=O)O[C@]1(C(C)=O)CCC2C3CCC4=CC(=O)CCC4=C3[C@@H](c3ccc(N(C)C)cc3)C[C@@]21C (stereo partly drawn) [Comparative Example, 17alpha-acetoxy-11beta-(4-N,N-dimethylaminophenyl)-19-norpregna-4,9-diene-3,20-dione]",9390.7 ng·h/mL,8447.4 ng·h/mL,1490.7 ng/mL,16.6 h,11.8 h,14.9 h,1.8 h,–,–,–,–,–,–,–,–,–
"CC(=O)O[C@]1(C(C)=O)CCC2C3CCC4=CC(=O)CCC4=C3[C@@H](c3ccc(N(C)C)cc3)C[C@@]21C (stereo partly drawn) [Example 1, 17alpha-acetoxy-11beta-(4-N,N-dimethylaminophenyl)-19-norpregna-4,9-diene-3,20-dione]",–,–,–,–,–,–,–,11.2 µg/mL,18078.4 ng·h/mL,12194.3 ng·h/mL,2200.2 ng/mL,37.7 h,11.7 h,37.3 h,1.2 h,excellent pharmacokinetics

# — patent US9643993B2, “Crystalline polymorphic form of ulipristal acetate” (ASKA PHARMACEUTICAL CO., LTD., priority 2012, dated 2017)
